SMILES strings stand for the structures. Some results are limits rather than exact numbers.

In general, IC50 refers to the point on the concentration scale where inhibition reaches its midpoint. A lower IC50 goes with higher potency.

This experiment addresses Human DPP-IV (Homo sapiens, UniProt P27487). In words: DPP-IV Assay (protease inhibition, AP-AFC substrate). Format: biochemical. On the procedure:
Solutions of test compounds in varying concentrations (≦10 mM final concentration) were prepared in Dimethyl Sulfoxide (DMSO) and then diluted into assay buffer comprising: 20 mM Tris, pH 7.4; 20 mM KCl; and 0.1 mg/mL BSA. Human DPP-IV (0.1 nM final concentration) was added to the dilutions and pre-incubated for 10 minutes at ambient temperature before the reaction was initiated with A-P-7-amido-4-trifluoromethylcoumarin (AP-AFC; 10 μM final concentration). The total volume of the reaction mixture was 10-100 μL depending on assay formats used (384 or 96 well plates). The reaction was followed kinetically (excitation λ=400 nm; emission λ=505 nm) for 5-10 minutes or an end-point was measured after 10 minutes. Inhibition constants (IC50) were calculated from the enzyme progress curves using standard mathematical models.

Human DPP-IV, sequence (P27487 whole entry): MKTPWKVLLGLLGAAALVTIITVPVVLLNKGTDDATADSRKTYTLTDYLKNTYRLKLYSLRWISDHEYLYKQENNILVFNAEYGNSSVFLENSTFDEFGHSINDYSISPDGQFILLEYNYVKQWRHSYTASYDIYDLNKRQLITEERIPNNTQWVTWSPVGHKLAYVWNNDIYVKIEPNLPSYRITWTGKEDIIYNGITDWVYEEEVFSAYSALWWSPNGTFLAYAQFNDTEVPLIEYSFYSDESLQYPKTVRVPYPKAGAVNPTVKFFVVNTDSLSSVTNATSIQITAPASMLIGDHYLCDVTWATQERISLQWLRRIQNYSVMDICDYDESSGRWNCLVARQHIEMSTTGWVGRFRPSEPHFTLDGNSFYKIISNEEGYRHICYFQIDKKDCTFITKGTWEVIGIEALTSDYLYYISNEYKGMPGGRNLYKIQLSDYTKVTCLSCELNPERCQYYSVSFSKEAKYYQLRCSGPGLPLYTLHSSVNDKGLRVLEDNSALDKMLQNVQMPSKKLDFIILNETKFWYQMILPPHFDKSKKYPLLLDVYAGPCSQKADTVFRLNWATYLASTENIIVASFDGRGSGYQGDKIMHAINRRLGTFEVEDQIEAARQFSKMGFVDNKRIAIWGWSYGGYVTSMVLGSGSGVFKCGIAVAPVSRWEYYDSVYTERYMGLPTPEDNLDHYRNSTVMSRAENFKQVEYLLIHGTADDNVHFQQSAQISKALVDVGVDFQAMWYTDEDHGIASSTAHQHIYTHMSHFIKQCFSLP

As for `COc1ccccc1-c1ccc2[nH]c(=O)c(=O)[nH]c2c1CN` [Example 1, 5-Aminomethyl-6-(2-methoxy-phenyl)-1,4-dihydro-quinoxaline-2,3-dione], the IC50 (DPP-IV inhibition, Human DPP-IV 0.1 nM, AP-AFC 10 μM) is < 50 µM. Moreover, the “selectivity in protease inhibition assays” value (tested in DPP-IV, FAPα, PREP and Tryptase assays) is reported as “selective DPP-IV inhibitory activity”.
